Data on one compound can be found in patent US7058616B1, “Method and system for predicting resistance of a disease to a therapeutic agent using a neural network” (Virco Bvba, priority 2000, dated 2006).

The structures appear in SMILES notation.

Assay [1] has as its system HIV-1. To be noted: cited from earlier work.
Assay [2] has as its system HIV-1. Description: MT-4 cell viral cytopathic effect protection assay, phenotypic susceptibility of patient recombinant virus. In kind it is cell-based. On the procedure:
Phenotypic susceptibility was determined using a MT-4 cell viral cytopathic effect protection assay. See, e.g., Kashiwase et al., Chemotherapy 45(1):48–55 (1999), expressly incorporated herein by reference; Larder et al., Antimicrob. Agents Chemother. 43(8):1961–1967 (1999).
Background: Damage to the host cells serves as the signal in cytopathic effect assays.

With `Nc1ccn([C@@H]2CS[C@H](CO)O2)c(=O)n1` [3TC], the “Effect of M184V mutation on 3TC susceptibility” value with HIV-1 [1] is reported as “confers resistance”. Also, the “Effect of 333D/E mutation” value in the assay on HIV-1 [1] (reverses the M184V effect) is “dual AZT/3TC resistance”. The “actual phenotype resistance level” value with HIV-1 [2] (Table 3 testing sample 1) is reported as “S/S (A fold resistance of less than or equal to 4 is considered to be “sensitive,”)”; with HIV-1 [2] (Table 3 testing sample 2), “R/R (if the value is greater than 10, it is considered to be “resistant.”)”; in the assay with HIV-1 [2] (Table 3 testing sample 3), “R/R (if the value is greater than 10, it is considered to be “resistant.”)”; with HIV-1 [2] (Table 3 testing sample 4), “S/S (A fold resistance of less than or equal to 4 is considered to be “sensitive,”)”; in the assay with HIV-1 [2] (Table 3 testing sample 5), “R/R (if the value is greater than 10, it is considered to be “resistant.”)”; in the assay on HIV-1 [2] (Table 3 testing sample 6) it was “R (if the value is greater than 10, it is considered to be “resistant.”)”. Further, the “actual phenotype resistance level” value with HIV-1 [2] (Table 3 testing sample 7) is reported as “R/R (if the value is greater than 10, it is considered to be “resistant.”)”; with HIV-1 [2] (Table 3 testing sample 8), “R/R (if the value is greater than 10, it is considered to be “resistant.”)”; with HIV-1 [2] (Table 3 testing sample 9) it was “R/R (if the value is greater than 10, it is considered to be “resistant.”)”; in the assay with HIV-1 [2] (Table 3 testing sample 10), “S/S (A fold resistance of less than or equal to 4 is considered to be “sensitive,”)”.
